Assay results as given in the supplement of paper PMC11208160.

Experiment: recombinant UMI read abundance after kanamycin selection (control-corrected) (log10(CPM+1)); higher = more efficient recombination; extreme values may be limits of the assay; sequences stand for … in AGTGCAGAGAAAATCGGCCAGTTTTCTCTGCCTGCAGTCCGCATGCCGTGGGACCCCTTGGGTTCTAACCTGTTGCCTAGATTTATGCAGCGGACTGCCTTTCTCCCAAAGTGATAAACCGG…AGGTTGGTTTCACT; site = the 11-nt donor
Procedure, shortened: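 In a pooled Escherichia coli screen for the IS621 bridge recombinase, donor and donor-binding-loop pairs were each placed with a 12-nt UMI on a plasmid bearing a promoterless kanamycin gene. This library was co-electroporated with a target plasmid encoding a fixed target and T7-inducible recombinase, and cells were plated either on IPTG (0.07 mM) plus kanamycin or without selection, in two replicates each. Recombinant UMIs were PCR-amplified across the donor–target junction and sequenced, and counts were converted to CPM, averaged over replicates, scaled by control-derived factors and reported as log10(CPM+1).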

Row | Sequence | recombinant UMI read abundance (log10)
1 | CAATCATCATGGACCGGTTTTCCCGGTAATCCGTATTTGAT (site CGATCATCTAG) | 0
2 | GGCAATCCATGGACCGGTTTTCCCGGTAATCCGTATTTGAA (site GGCAATGCTTT) | 0.00508
3 | CGGAATCCATGGACCGGTTTTCCCGGTAATCCGTATTTGTC (site CGGAATCCTCA) | 0.00507
4 | CCCTTCTCATGGACCGGTTTTCCCGGTAATCCGTATTTGGG (site CGCTTCTCTCC) | 0
5 | CAGTCGACATGGACCGGTTTTCCCGGTAATCCGTATTTGGT (site CAGTCGACTCC) | 0.0077
6 | CACGGCCCATGGACCGGTTTTCCCGGTAATCCGTATTTGTG (site CACGGCCCTCA) | 0.0766
7 | CAAGTCACATGGACCGGTTTTCCCGGTAATCCGTATTTGGG (site CATGTCACTCC) | 0.0038
8 | ACAGTATCATGGACCGGTTTTCCCGGTAATCCGTATTTGCA (site ACACTATCTCG) | 0
9 | GAAGATACATGGACCGGTTTTCCCGGTAATCCGTATTTGTT (site GAAGATCCTAA) | 0.00569
10 | GACCGTCCATGGACCGGTTTTCCCGGTAATCCGTATTTGAT (site AACCGTCCTAT) | 0
11 | GACAAAGCATGGACCGGTTTTCCCGGTAATCCGTATTTGGT (site GACAAACCTAC) | 0
12 | CGGAAACCATGGACCGGTTTTCCCGGTAATCCGTATTTGAT (site CGGAAACCTAT) | 0
13 | TCAGAGTCATGGACCGGTTTTCCCGGTAATCCGTATTTGCG (site TCAGAGACTCG) | 0.877
14 | CGGGAACCATGGACCGGTTTTCCCGGTAATCCGTATTTGAA (site CGGGAACCTAT) | 0
15 | TCCTAGGCATGGACCGGTTTTCCCGGTAATCCGTATTTGGT (site TCCTAGGCTAC) | 0.0125
16 | CCCTAGCCATGGACCGGTTTTCCCGGTAATCCGTATTTGCC (site CACTAGCCTGG) | 0
17 | CAAGTTACATGGACCGGTTTTCCCGGTAATCCGTATTTGGG (site CAAGTAACTCC) | 0.277
18 | GAGCACACATGGACCGGTTTTCCCGGTAATCCGTATTTGAT (site GAGCCCACTAT) | 0.0144
19 | GATTATCCATGGACCGGTTTTCCCGGTAATCCGTATTTGCT (site GATTATCCTAG) | 0
20 | CCTTAAGCATGGACCGGTTTTCCCGGTAATCCGTATTTGAT (site CCTGAAGCTAT) | 0
21 | CGTTTGGCATGGACCGGTTTTCCCGGTAATCCGTATTTGTT (site CGTTTGGCTAT) | 0.033
22 | ACACGAACATGGACCGGTTTTCCCGGTAATCCGTATTTGTC (site ACACGAACTGC) | 0
23 | CGTTTGTCATGGACCGGTTTTCCCGGTAATCCGTATTTGCT (site CGTTTGACTAG) | 0
24 | ACAGTATCATGGACCGGTTTTCCCGGTAATCCGTATTTGCA (site CCTGTATCTTG) | 2.37
25 | CTCCCTACATGGACCGGTTTTCCCGGTAATCCGTATTTGGG (site CTCCCTACTCA) | 0.037

Row | Sequence | recombinant UMI read abundance (log10)
26 | GATTATCCATGGACCGGTTTTCCCGGTAATCCGTATTTGCT (site GATTATCCTGG) | 0
27 | CTACTAACATGGACCGGTTTTCCCGGTAATCCGTATTTGGA (site CTTCTAACTTC) | 0.11
28 | GAACGTACATGGACCGGTTTTCCCGGTAATCCGTATTTGCT (site GAACGTACTAG) | 2.26
29 | AGGTCCCCATGGACCGGTTTTCCCGGTAATCCGTATTTGTG (site AGGTACCCTCA) | 0.0207
30 | GACATACCATGGACCGGTTTTCCCGGTAATCCGTATTTGGC (site GACATACCTGC) | 0
31 | AATGTGTCATGGACCGGTTTTCCCGGTAATCCGTATTTGAC (site CATGTGTCTGT) | 0.999
32 | CGATTGACATGGACCGGTTTTCCCGGTAATCCGTATTTGTT (site CGATTGACTAA) | 1.24
33 | CTCTGCACATGGACCGGTTTTCCCGGTAATCCGTATTTGCT (site CTCTGCACTAG) | 2.1
34 | AAGACTACATGGACCGGTTTTCCCGGTAATCCGTATTTGAC (site AAGACTACTGT) | 2.69
35 | GTGCATTCATGGACCGGTTTTCCCGGTAATCCGTATTTGGT (site GTGCATTCTAC) | 1.99
36 | ACAGTATCATGGACCGGTTTTCCCGGTAATCCGTATTTGGT (site ACAGTATCTTG) | 0.731
37 | CAAGTCACATGGACCGGTTTTCCCGGTAATCCGTATTTGGG (site GAAGTCACTCC) | 0.0173
38 | TGTTCCCCATGGACCGGTTTTCCCGGTAATCCGTATTTGTG (site TGTTCCCCTAA) | 0.00613
39 | CTAGTAACATGGACCGGTTTTCCCGGTAATCCGTATTTGAC (site CTAGTATCTGT) | 1.83
40 | ACAGTATCATGGACCGGTTTTCCCGGTAATCCGTATTTGCA (site ACAGTCTCTAG) | 0
41 | AGGTTCCCATGGACCGGTTTTCCCGGTAATCCGTATTTGTG (site AGGTGCCCTCA) | 0.018
42 | CTGCATGCATGGACCGGTTTTCCCGGTAATCCGTATTTGGT (site CTGCATGCTAC) | 1.57
43 | ATCTACACATGGACCGGTTTTCCCGGTAATCCGTATTTGAC (site ATCTAGACTGT) | 0
44 | AACCTCTCATGGACCGGTTTTCCCGGTAATCCGTATTTGCC (site AACCTCTCTGG) | 2.62
45 | CACTCCTCATGGACCGGTTTTCCCGGTAATCCGTATTTGAC (site CACTCCTCTGT) | 3.09
46 | ATCTATACATGGACCGGTTTTCCCGGTAATCCGTATTTGAG (site ATCTATACTGT) | 0
47 | AATTTAACATGGACCGGTTTTCCCGGTAATCCGTATTTGCT (site AATTTAACTAG) | 2.28
48 | GCTGGCCCATGGACCGGTTTTCCCGGTAATCCGTATTTGAT (site GCTTGCCCTAT) | 0
49 | CTAAAATCATGGACCGGTTTTCCCGGTAATCCGTATTTGAC (site CTAAAATCTGT) | 2.03
50 | GGTAAGTCATGGACCGGTTTTCCCGGTAATCCGTATTTGTT (site GGTACGTCTAA) | 0.00407

Row | Sequence | recombinant UMI read abundance (log10)
51 | CTAGATTCATGGACCGGTTTTCCCGGTAATCCGTATTTGGA (site CTAGATTCTTC) | 2.84
52 | ATGGCCGCATGGACCGGTTTTCCCGGTAATCCGTATTTGGC (site ATGGCCGCTGC) | 2.53
53 | CGTTAGACATGGACCGGTTTTCCCGGTAATCCGTATTTGAT (site CGTTAGACTTT) | 0.0167
54 | GGATGCTCATGGACCGGTTTTCCCGGTAATCCGTATTTGCT (site GGATGCTCTAG) | 3
55 | TGGGAGACATGGACCGGTTTTCCCGGTAATCCGTATTTGCA (site AGGAAGACTTG) | 0.261
56 | CCATAGCCATGGACCGGTTTTCCCGGTAATCCGTATTTGCC (site CCGTAGCCTGG) | 0
57 | TAGGAATCATGGACCGGTTTTCCCGGTAATCCGTATTTGGG (site TAGGAATCTCA) | 0.407
58 | CAATGCACATGGACCGGTTTTCCCGGTAATCCGTATTTGAA (site CAATGCCCTTT) | 0
59 | GTGCCTGCATGGACCGGTTTTCCCGGTAATCCGTATTTGGT (site GTGCTTGCTAC) | 0.00506
60 | GTTCGAGCATGGACCGGTTTTCCCGGTAATCCGTATTTGCA (site GTTAGAGCTTG) | 0.651
61 | GTAGTCGCATGGACCGGTTTTCCCGGTAATCCGTATTTGCG (site GTTGTCGCTCG) | 0.285
62 | ACAGTATCATGGACCGGTTTTCCCGGTAATCCGTATTTGCA (site GCAGTCTCTTG) | 0.292
63 | AGCCTAGCATGGACCGGTTTTCCCGGTAATCCGTATTTGTT (site AGCATAGCTAA) | 0.00842
64 | GCAGAGACATGGACCGGTTTTCCCGGTAATCCGTATTTGCG (site TCAGAGACTCG) | 2.34
65 | GCTACTGCATGGACCGGTTTTCCCGGTAATCCGTATTTGCA (site GCTACTGCTCG) | 0.00835
66 | GGTAATCCATGGACCGGTTTTCCCGGTAATCCGTATTTGAA (site GGCAATCCTTT) | 0.58
67 | TCCCATTCATGGACCGGTTTTCCCGGTAATCCGTATTTGCC (site TCCAATTCTGG) | 0
68 | ATCCGACCATGGACCGGTTTTCCCGGTAATCCGTATTTGTC (site ATCCGACCTGA) | 0
69 | TCCACCGCATGGACCGGTTTTCCCGGTAATCCGTATTTGTG (site TCCACCGCTCC) | 0.00628
70 | AGCCTAGCATGGACCGGTTTTCCCGGTAATCCGTATTTGTT (site AACCTAGCTAA) | 0.00661
71 | AAGCAGGCATGGACCGGTTTTCCCGGTAATCCGTATTTGGG (site AAGCAGGCTCC) | 0.367
72 | GCCACGGCATGGACCGGTTTTCCCGGTAATCCGTATTTGTA (site GCCACGGCTTA) | 1.62
73 | GCAACGCCATGGACCGGTTTTCCCGGTAATCCGTATTTGTA (site GCTACGCCTTA) | 0.0211
74 | ACCCGTCCATGGACCGGTTTTCCCGGTAATCCGTATTTGTA (site ACCCGTCCTTA) | 0.613
75 | TGCGGCACATGGACCGGTTTTCCCGGTAATCCGTATTTGCC (site TGCGGCACTGG) | 1.44
